# Test results taken from US9000028B2, “Indole and indazole compounds as an inhibitor of cellular necrosis” (LG Life Sciences Ltd., priority 2007, dated 2015).
# Test system: primary hepatocytes isolated from rats
# Assay: Hepatocyte protective effect against substances deriving hepatocyte toxicity (WST-1 viability)
# Format: cell-based
# Details: Rattus norvegicus, Hepatocyte, doxorubicin, 24-48 h, read-out: EC50, cell protective effects against doxorubicin in hepatocytes
# Method: Various endogenous/exogenous attacks on the cells trigger the mechanisms of cell death which is broadly classified into two types, i.e. apoptosis or necrosis. Using these cell death mechanisms, in the present experimental example, primary hepatocytes isolated from rats were treated with drugs which were clinically shown to result in serious side-effects of hepatocyte toxicity or various chemicals which derive cell death, and the compounds synthesized in the Examples were estimated for their hepatocyte protective effects, after 24-48 h. The substances used to derive hepatocyte death include CCl4, ActD, H2O2, doxorubicin, anti-Fas Ab/Actinomycin D, acetaminophen, EtOH, CdCl2, palmitate, stearate, cyclophosphamide, terfenadine, diclofenac, simvastatin, and adefovir. Primary hepatocytes were isolated using the method of Seglen PO (Experimental Cell Research 74 (1972) pp 450-454). Briefly, hepatocytes were isolated according to the two-step collagenase perfusion method, and dead cells were removed by low speed (500 rpm) centrifugation for 10 min using percoll gradient (Kreamer B L etc, In Vitro Cellular & Developmental Biology 22 (1986) pp 201-211). During this step, the viability of cells was maintained 90% or above. The cells were suspended in HepatoZYME media (Gibco BRL), and the number of cells was counted. 1.5×10^4 cells in 100 μl were placed into the collagen-coated 96-well plate (BD biocoat), and adhered on the bottom for 3-4 h.
# In order to assess the hepatocyte protective effect, above adhered cells were pretreated with the Example compounds for 30 min. At this time, the concentration of the Example compounds were serially diluted by 2-fold or 3-fold over 5 steps starting from 30 uM, 10 uM or 1 uM depending on the experiments, and the final concentration of DMSO was adjusted to 0.2%. 30 min after the treatment by compounds, cells were treated by the substances deriving hepatocyte death or hepatotoxic drugs at the concentrations indicated in Table 1. After 24-48 h, the viability of cells was determined to estimate the hepatocyte protective effects. The viability of cells was determined using WST-1 (MK-400, […]) method by the absorbance at 440 nm. Hepatocyte protective effects of the Example compounds were represented by “EC50,” which was calculated from measured values. “EC50” herein means the concentration of the compound at which 50% of maximum protective effect is observed in the experiment.
row,SMILES,EC50 [nM]
1,"Clc1cc(NCC2CCCC2)c2[nH]c(-c3ccccc3)cc2c1 [Example 49, Cyclopentylmethyl-(5-chloro-2-phenyl-1H-indol-7-yl)-amine]",133
2,"O=S1(=O)CCN(CCc2cccc(-c3cc4cc(Cl)cc(NC5CCOCC5)c4[nH]3)c2)CC1 [Example 152, {5-Chloro-2-[3-(1,1-dioxo-thiomorpholin-4-yl)ethylphenyl]-1H-indol-7-yl}-(tetrahydropyran-4-yl)-amine]",240
3,"OCC(CO)Nc1cc(Cl)cc2cc(-c3ccccc3)[nH]c12 [Example 54, 2-[(5-Chloro-2-phenyl-1H-indol-7-yl)amino]propan-1,3-diol]",220
4,"COC(=O)Cc1ccc(-c2cc3cc(Cl)cc(NCC4CCOCC4)c3[nH]2)cc1 [Example 144, 2-{4-[5-Chloro-7-(tetrahydropyran-4-ylmethyl)amino-1H-indol-2-yl]phenyl}-acetic acid methyl ester]",300
5,"O=C1CCC(Nc2cc(Cl)cc3cc(-c4ccccc4)[nH]c23)CC1 [Example 21, 4-[(5-Chloro-2-phenyl-1H-indol-7-yl)amino]-cyclohexan-1-one]",40
6,"Cc1cc(NC2CCC(=O)CC2)c2[nH]c(-c3ccccn3)cc2c1 [Example 20, (1-Cyclohexanon-4-yl)-[5-methyl-2-(pyridin-2-yl)-1H-indol-7-yl]-amine]",300
7,"Nc1ccc(-c2cc3cc(Cl)cc(NC4CCCC4)c3[nH]2)cc1 [Example 82, Cyclopentyl-[2-(4-aminophenyl)-5-chloro-1H-indol-7-yl]-amine]",70
8,"CN(C)Cc1cccc(-c2cc3cc(Cl)cc(NC4CCOCC4)c3[nH]2)c1 [Example 147, [5-Chloro-2-(3-dimethylaminomethylphenyl)-1H-indol-7-yl]-(tetrahydropyran-4-yl)-amine]",460
9,"O=C1CN(Cc2c(-c3ccccc3)[nH]c3c(NCC4CCOCC4)cc(Cl)cc23)CCN1 [Example 71, (Tetrahydropyran-4-ylmethyl)-(5-chloro-3-(2-oxo-piperazin-4-yl)methyl-2-phenyl-1H-indol-7-yl)-amine]",254
10,"O=C(O)[C@@H]1CCCN1C(=O)c1cc(NC2CCOCC2)c2[nH]c(-c3ccccc3)cc2c1 [Example 118, (2S)-1-[2-phenyl-7-(tetrahydropyran-4-yl)amino-1H-indole-5-carbonyl]-pyrrolidine-2-carboxylic acid]",1100
11,"Cc1cc(NC2CCNCC2)c2[nH]c(-c3ccccc3)cc2c1 [Example 90, (5-Methyl-2-phenyl-1H-indol-7-yl)-piperidin-4-yl-amine]",146
12,"CC(Nc1cc(Oc2ccccc2)cc2cc(-c3ccccc3)[nH]c12)C(=O)O (stereo not drawn) [Example 111, 2-(5-Phenoxy-2-phenyl-1H-indol-7-yl)amino-propionic acid]",257
13,"Cc1cc(NC2CCCC2)c2[nH]c(-c3cccc(C)n3)cc2c1 [Example 19, Cyclopentyl-[5-methyl-2-(6-methylpyridin-2-yl)-1H-indol-7-yl]-amine]",70
14,"c1cc(NC2CCCC2)c2[nH]c(-c3cnccn3)cc2c1 [Example 5, Cyclopentyl-[2-(pyrazin-2-yl)-1H-indol-7-yl]-amine]",500
15,"Cc1cc(NC2CCCC2)c2[nH]ncc2c1 [Example 155, Cyclopentyl-(5-methyl-1H-indazol-7-yl)-amine]",1300
16,"c1cc(NC2CCOCC2)c2[nH]ncc2c1 [Example 154, (Tetrahydropyran-4-yl)-(1H-indazol-7-yl)-amine]",4200

row,SMILES,EC50 [nM]
1,"OCCN1CCC(Nc2cc(F)cc3cc(-c4ccccc4)[nH]c23)CC1 [Example 60, 2-[4-[(5-Fluoro-2-phenyl-1H-indol-7-yl)amino]piperidin-1-yl]ethanol]",170
2,"COC(=O)Cc1cccc(-c2cc3cc(Cl)cc(NCC4CCOCC4)c3[nH]2)c1 [Example 130, 2-{3-[5-Chloro-7-(tetrahydropyran-4-ylmethyl)amino-1H-indol-2-yl]-phenyl}-acetic acid methyl ester]",380
3,"Cc1cc(NCC2CCCC2)c2[nH]c(-c3ccccn3)cc2c1 [Example 15, Cyclopentylmethyl-[5-methyl-2-(pyridin-2-yl)-1H-indol-7-yl]-amine]",100
4,"Cc1cc(NC2CCN(C)CC2)c2[nH]c(-c3ccccn3)cc2c1 [Example 13, (1-Methylpiperidin-4-yl)-[5-methyl-2-(pyridin-2-yl)-1H-indol-7-yl]-amine]",400
5,"OCc1cccc(-c2cc3cc(Cl)cc(NC4CCOCC4)c3[nH]2)c1 [Example 126, {3-[5-Chloro-7-(tetrahydropyran-4-yl)amino-1H-indol-2-yl]-phenyl}-methanol]",200
6,"Brc1c(-c2ccccc2)[nH]c2c(NC3CCOCC3)cc(CN3CCOCC3)cc12 [Example 162, (Tetrahydropyran-4-yl)-[3-bromo-5-(morpholin-4-yl)methyl-2-phenyl-1H-indol-7-yl]-amine]",700
7,"COC(=O)Cc1cccc(-c2cc3cc(Cl)cc(NC4CCCC4)c3[nH]2)c1 [Example 131, 2-[3-(5-Chloro-7-cyclopentylamino-1H-indol-2-yl)-phenyl]-acetic acid methyl ester]",360
8,"OCCc1ccc(-c2cc3cc(Cl)cc(NC4CCOCC4)c3[nH]2)cc1 [Example 137, 2-{4-[5-Chloro-7-(tetrahydropyran-4-yl)amino-1H-indol-2-yl]phenyl}-ethanol]",160
9,"Clc1cc(NC2CCCC2)c2[nH]c(-c3ccccc3)cc2c1 [Example 46, Cyclopentyl-(5-chloro-2-phenyl-1H-indol-7-yl)-amine]",50
10,"Clc1cc(NC2CCOCC2)c2[nH]c(-c3ccccc3)cc2c1 [Example 48, (Tetrahydropyran-4-yl)-(5-chloro-2-phenyl-1H-indol-7-yl)-amine]",44
11,"CS(=O)(=O)Nc1ccc(-c2cc3cc(Cl)cc(NC4CCCC4)c3[nH]2)cc1 [Example 84, N-[4-(5-chloro-7-cyclopentylamino-1H-indol-2-yl)-phenyl]methanesulfonamide]",90
12,"O=C(O)c1ccc(-c2cc3cc(Cl)cc(NC4CCCC4)c3[nH]2)cc1 [Example 138, 4-(5-Chloro-7-cyclopentylamino-1H-indol-2-yl)-benzoic acid]",100
13,"O=C1CN(Cc2c(-c3ccccc3)[nH]c3c(NC4CCCC4)cc(Cl)cc23)CCN1 [Example 70, Cyclopentyl-(5-chloro-3-(2-oxo-piperazin-4-yl)methyl-2-phenyl-1H-indol-7-yl)-amine]",256
14,"c1ccc(Oc2cc(NC3CCOCC3)c3[nH]c(-c4ccccc4)cc3c2)cc1 [Example 62, (Tetrahydropyran-4-yl)-(5-phenoxy-2-phenyl-1H-indol-7-yl)-amine]",110
15,"COC(=O)c1ccc(-c2cc3cc(C)cc(NC4CCCC4)c3[nH]2)cc1 [Example 143, 4-(7-Cyclopentylamino-5-methyl-1H-indol-2-yl)benzoic acid methyl ester]",66
16,"COC(=O)c1cccc(-c2cc3cc(Cl)cc(NC4CCCC4)c3[nH]2)c1 [Example 123, 3-(7-Cyclopentylamino-5-chloro-1H-indol-2-yl)-benzoic acid methyl ester]",190

# Same assay, conditions: doxorubicin; rat primary hepatocytes; 24-48 h; read-out: EC50, cell protective effects against doxorubicin in hepatocytes
row,SMILES,EC50 [nM]
1,"O=C1CN(Cc2cc(NC3CCCC3)c3[nH]c(-c4cccc(F)c4)cc3c2)CCN1 [Example 38, Cyclopentyl-[2-(3-fluoro)phenyl-5-(2-oxo-piperazin-4-yl)methyl-1H-indol-7-yl]amine]",110
